Assay results taken from US8906929B2, “Inhibitors of human immunodeficiency virus replication” (priority 2012, dated 2014).
Where two headings read alike, the source gives them in different places.

What was measured:
[1] = rcm bond, Hoveyda-Grubbs II, DCE
[2] = test system: recombinant NL-Rluc virus; test: Inhibition of HIV replication (NL-RLuc virus in MT-2 cells, luciferase readout); format: cell-based; settings: 5 days of incubation, 10% FBS
[3] = Human immunodeficiency virus 1, MT2, 120 h

Compound | EC50 [2, 3] | further results
COC(=O)[C@@H](OC(C)(C)C)c1c(C)nc2cc3nn2c1-c1cc(F)c2c(c1)N(CC=CCCc1ccccc1-c1cccc-3c1)CCO2 | – | ring closure, isolated yield ([1]; from C=CCCc1ccccc1-c1cccc(-c2cc3nc(C)c([C@H](OC(C)(C)C)C(=O)OC)c(-c4cc(F)c5c(c4)N(CC=C)CCO5)n3n2)c1, 18-membered ring, 8.3 mM, 70.0 °C, 18.0 h): 54.5%
COC(=O)[C@@H](OC(C)(C)C)c1c(C)nc2cc3nn2c1-c1ccc2c(c1Cl)N(CC=CCCCOc1ccccc1-c1cccc-3c1)CCO2 | – | ring closure, isolated yield ([1]; from C=CCCCOc1ccccc1-c1cccc(-c2cc3nc(C)c([C@H](OC(C)(C)C)C(=O)OC)c(-c4ccc5c(c4Cl)N(CC=C)CCO5)n3n2)c1, 20-membered ring, 27.0 mM, 50.0 °C, 3.0 h): 53.4%
Cc1nc2cc3nn2c(c1[C@H](OC(C)(C)C)C(=O)O)N1CCC(C)(CC1)OCCCC[C@H](C)Oc1cc(F)ccc1-c1cccc-3c1 [Example 83, (2S)-2-(tert-Butoxy)-2-[(22S)-18-fluoro-4,22,28-trimethyl-21,27-dioxa-1,5,7,8-tetraazahexacyclo[26.2.2.1^6,^9.1^10,^14.0^2,^7.0^15,^20]tetratriaconta-2,4, 6(34), 8, 10(33), 11, 13, 15(20),16,18-decaen-3-yl]acetic acid] | 25 nM | –
Cc1nc2cc3nn2c(c1[C@H](OC(C)(C)C)C(=O)O)N1CCC(C)(CC1)OCCCC[C@H](C)Oc1cccc(F)c1-c1cccc-3c1 [Example 84, (2S)-2-(tert-Butoxy)-2-[(22S)-16-fluoro-4,22,28-trimethyl-21,27-dioxa-1,5,7,8-tetraazahexacyclo[26.2.2.1^6,^9.1^10,^14.0^2,^7.0^15,^20]tetratriaconta-2,4,6(34),8,10(33),11,13,15(20),16,18-decaen-3-yl]acetic acid] | 12 nM | –
Cc1nc2cc3nn2c(c1[C@H](OC(C)(C)C)C(=O)O)N1CCC(C)(CC1)OCCCC[C@H](C)Oc1cccc(Cl)c1-c1cccc-3c1 [Example 85, (2S)-2-(tert-Butoxy)-2-[(22S)-16-chloro-4,22,28-trimethyl-21,27-dioxa-1,5,7,8-tetraazahexacyclo[26.2.2.1^6,^9.1^10,^14.0^2,^7.0^15,^20]tetratriaconta-2,4, 6(34), 8, 10(33), 11, 13, 15 (20),16,18-decaen-3-yl]acetic acid] | 21 nM | –
Cc1nc2cc3nn2c(c1[C@H](OC(C)(C)C)C(=O)O)N1CCC(C)(CC1)OCCCC[C@H](C)Oc1cc(Cl)ccc1-c1cccc-3c1 [Example 86, (2S)-2-(tert-Butoxy)-2-[(22S)-18-chloro-4,22,28-trimethyl-21,27-dioxa-1,5,7,8-tetraazahexacyclo[26.2.2.1^6,^9. 1^10,^14.0^2,^7.0^15,^20]tetratriaconta-2,4,6(34),8,10(33), 11, 13, 15 (20),16,18-decaen-3-yl]acetic acid] | 52 nM | –
Cc1nc2cc3nn2c(c1[C@H](OC(C)(C)C)C(=O)O)N1CCC(C)(CC1)OCCCC[C@H](C)Oc1cc(C#N)ccc1-c1cccc-3c1 [Example 87, (2S)-2-(tert-Butoxy)-2-[(22S)-18-cyano-4,22,28-trimethyl-21,27-dioxa-1,5,7,8-tetraazahexacyclo[26.2.2.1^6,^9.1^10,^14.0^2,^7.0^15,^20]tetratriaconta-2,4,6(34),8,10(33), 11, 13, 15 (20),16,18-decaen-3-yl]acetic acid] | 9 nM | –
Cc1cc2c(cc1Cl)-c1cccc(c1)-c1cc3nc(C)c([C@H](OC(C)(C)C)C(=O)O)c(n3n1)N1CCC(C)(CC1)OCCCC[C@H](C)O2 [Example 88, (2S)-2-(tert-Butoxy)-2-[(22S)-17-chloro-4,18,22,28-tetramethyl-21,27-dioxa-1,5,7,8-tetraazahexacyclo[26.2.2.1^6,^9.1^10,^14.0^2,^7.0^15,^20]tetratriaconta-2,4, 6(34), 8, 10(33), 11, 13, 15 (20),16,18-decaen-3-yl]acetic acid] | 86 nM | –
Cc1nc2cc3nn2c(c1[C@H](OC(C)(C)C)C(=O)O)N1CCC(C)(CC1)OCCCC[C@H](C)Oc1ccc(Cl)c(C)c1-c1cccc-3c1 [Example 89, (2S)-2-(tert-Butoxy)-2-[(22S)-17-chloro-4,16,22,28-tetramethyl-21,27-dioxa-1,5,7,8-tetraazahexacyclo[26.2.2.1^6,^9.1^10,^14.0^2,^7.0^15,^20]tetratriaconta-2,4, 6(34), 8, 10(33), 11, 13, 15(20),16,18-decaen-3-yl]acetic acid] | 110 nM | –
Cc1cc2c(cc1Cl)-c1cccc(c1)-c1cc3nc(C)c([C@H](OC(C)(C)C)C(=O)O)c(n3n1)N1CCC(C)(CC1)OCCCC[C@@H](C)O2 [Example 90, (2S)-2-(tert-Butoxy)-2-[(22R)-17-chloro-4,18,22,28-tetramethyl-21,27-dioxa-1,5,7,8-tetraazahexacyclo[26.2.2.1^6,^9.1^10,^14.0^2,^7.0^15,^20]tetratriaconta-2,4, 6(34), 8, 10(33), 11, 13, 15 (20),16,18-decaen-3-yl]acetic acid] | 157 nM | –
Cc1cc2c(cc1F)-c1cccc(c1)-c1cc3nc(C)c([C@H](OC(C)(C)C)C(=O)O)c(n3n1)N1CCC(C)(CC1)OCCCC[C@H](C)O2 [Example 91, (2S)-2-(tert-Butoxy)-2-[(22S)-17-fluoro-4,18,22,28-tetramethyl-21,27-dioxa-1,5,7,8-tetraazahexacyclo[26.2.2.1^6,^9.1^10,^14.0^2,^7.0^15,^20]tetratriaconta-2,4,6(34),8,10(33), 11, 13, 15(20),16,18-decaen-3-yl]acetic acid] | 47 nM | –
CCC(C)(C)O[C@H](C(=O)O)c1c(C)nc2cc3nn2c1N1CCC(C)(CC1)OCCCC[C@H](C)Oc1ccc(C)cc1-c1cccc-3c1 [Example 96, (2S)-2-[(2-Methylbutan-2-yl)oxy]-2-[(22S)-4,17,22,28-tetramethyl-21,27-dioxa-1,5,7,8-tetraazahexacyclo[26.2.2.1^6,^9.1^10,^14.0^2,^7.0^15,^20]tetratriaconta-2,4,6(34),8,10(33), 11, 13, 15 (20),16,18-decaen-3-yl]acetic acid] | 36 nM | –
Cc1ccc2c(c1)-c1cccc(c1)-c1cc3nc(C)c([C@H](OC4(C)CCC4)C(=O)O)c(n3n1)N1CCC(C)(CC1)OCCCC[C@H](C)O2 [Example 97, (2S)-2-(1-Methylcyclobutoxy)-2-[(22S)-4,17,22,28-tetramethyl-21,27-dioxa-1,5,7,8-tetraazahexacyclo[26.2.2.1^6,^9.1^10,^14.0^2,^7.0^15,^20]tetratriaconta-2,4, 6(34), 8, 10(33), 11, 13, 15 (20),16,18-decaen-3-yl]acetic acid] | 41 nM | –
Cc1nc2cc3nn2c(c1[C@H](OC(C)(C)C)C(=O)O)N1CCC(C)(CC1)OCCCC[C@H](C)Oc1cccc(F)c1-c1cc-3ccc1F [Example 99] | 20 nM | –
Cc1ccc2c(c1)O[C@@H](C)CC=CCOC1(C)CCN(CC1)c1c([C@H](OC(C)(C)C)C(=O)O)c(C)nc3cc(nn13)-c1cccc-2c1 [Example 105, (2S)-2-(tert-Butoxy)-2-[(22S)-4,18,22,28-tetramethyl-21,27-dioxa-1,5,7,8-tetraazahexacyclo[26.2.2.1^6,^9.1^10,^14.0^2,^7.0^15,^20]tetratriaconta-2,4,6(34),8,10(33), 11, 13, 15(20),16,18,24-undecaen-3-yl]acetic acid] | 28 nM | –
Cc1nc2cc3nn2c(c1[C@H](OC(C)(C)C)C(=O)O)N1CCC(C)(CC1)COCCCCCc1ccccc1-c1cccc-3c1 [Example 106] | 89 nM | –
(2S)-2-(tert-Butoxy)-2-[(22S)-4,17,22,29-tetramethyl-21,28-dioxa-1,5,7,8-tetraazahexacyclo[27.2.2.1^6,^9.1^10,^14.0^2,^7.0^15,^20]pentatriaconta-2,4, 6(35), 8, 10(34), 11, 13, 15 (20),16,18-decaen-3-yl]acetic acid [Example 65] | – | EC50 ([2]; read-out: EC50): 43 nM
